How the values were obtained:
[1] = tested on: Puccinia recondita f. sp. tritici; assay: Fungicidal activity against Puccinia recondita f. sp. tritici / wheat / leaf disc curative (brown rust); type: in vivo; details: foliar, 200 ppm in the applied formulation, wheat leaf segments cv. Kanzler, curative (applied 1 day after inoculation), assessed 6 to 8 days after application, read-out: disease control compared to untreated control leaf disks
Protocol: (§1) Leaf disks or leaf segments of various plant species are cut from plants grown in a greenhouse. The cut leaf disks or segments are placed in multiwell plates (24-well format) onto water agar. The leaf disks are sprayed with a test solution before (preventative) or after (curative) inoculation. Compounds to be tested are prepared as DMSO solutions (max. 10 mg/ml) which are diluted to the appropriate concentration with 0.025% Tween20 just before spraying. The inoculated leaf disks or segments are incubated under defined conditions (temperature, relative humidity, light, etc.) according to the respective test system. A single evaluation of disease level is carried out 3 to 14 days after inoculation, depending on the pathosystem. Percent disease control relative to the untreated check leaf disks or segments is then calculated. General Examples of Liquid Culture Tests in Well Plates:
Example 2: Fungicidal Activity Against Puccinia recondita f. sp. Tritici/Wheat/Leaf Disc Curative (Brown Rust)
Wheat leaf segments cv. Kanzler are placed on agar in multiwell plates (24-well format). The leaf segments are then inoculated with a spore suspension of the fungus. Plates were stored in darkness at 19° C. and 75% relative humidity. The formulated test compound diluted in water was applied 1 day after inoculation. The leaf segments were incubated at 19° C. and 75% relative humidity under a light regime of 12 hours light/12 hours darkness in a climate cabinet and the activity of a compound was assessed as percent disease control compared to untreated when an appropriate level of disease damage appears in untreated check leaf segments (6 to 8 days after application).
(§2) The following compounds at 200 ppm in the applied formulation give at least 80% disease control in this test when compared to untreated control leaf disks under the same conditions, which show extensive disease development.

[2] = tested on: Puccinia recondita f. sp. tritici; assay: Fungicidal activity against Puccinia recondita f. sp. tritici / wheat / leaf disc preventative (brown rust); type: in vivo; details: foliar, 200 ppm in the applied formulation, wheat leaf segments cv. Kanzler, preventative (inoculated 1 day after application), assessed 7 to 9 days after application, read-out: disease control compared to untreated control leaf disks
Protocol: as §1
Example 1: Fungicidal Activity Against Puccinia recondita f. sp. tritici/Wheat/Leaf Disc Preventative (Brown Rust)
Wheat leaf segments cv. Kanzler were placed on agar in multiwell plates (24-well format) and sprayed with the formulated test compound diluted in water. The leaf disks were inoculated with a spore suspension of the fungus 1 day after application. The inoculated leaf segments were incubated at 19C and 75% relative humidity (rh) under a light regime of 12 hours light/12 hours darkness in a climate cabinet and the activity of a compound was assessed as percent disease control compared to untreated when an appropriate level of disease damage appears in untreated check leaf segments (7 to 9 days after application).
as §2

[3] = tested on: Glomerella laqenarium (Colletotrichum lagenarium); assay: Fungicidal activity against Glomerella lagenarium (Colletotrichum lagenarium) liquid culture / cucumber / preventative (anthracnose); type: cell-based; details: Colletotrichum orbiculare; 20 ppm in the applied formulation; liquid culture in PDB, 24° C., 3 to 4 days after application; read-out: disease control compared to untreated control (inhibition of growth measured photometrically)
Protocol: Mycelia fragments or conidia suspensions of a fungus prepared either freshly from liquid cultures of the fungus or from cryogenic storage, are directly mixed into nutrient broth. DMSO solutions of the test compound (max. 10 mg/ml) are diluted with 0.025% Tween20 by a factor of 50 and 10 μl of this solution is pipetted into a microtiter plate (96-well format). The nutrient broth containing the fungal spores/mycelia fragments is then added to give an end concentration of the tested compound. The test plates are incubated in the dark at 24° C. and 96% relative humidity. The inhibition of fungal growth is determined photometrically after 2 to 7 days, depending on the pathosystem, and percent antifungal activity relative to the untreated check is calculated.
Example 4: Fungicidal Activity Against Glomerella laqenarium (Colletotrichum lagenarium) Liquid Culture/Cucumber/Preventative (Anthracnose)
Conidia of the fungus from cryogenic storage are directly mixed into nutrient broth (PDB—potato dextrose broth). After placing a (DMSO) solution of test compound into a microtiter plate (96-well format), the nutrient broth containing the fungal spores is added. The test plates are incubated at 24° C. and the inhibition of growth is measured photometrically 3 to 4 days after application.
The following compounds at 20 ppm in the applied formulation give at least 80% disease control in this test when compared to untreated control under the same conditions, which show extensive disease development.

Phakopsora pachyrhizi = assay: Fungicidal activity against Phakopsora pachyrhizi / soybean / leaf disc preventative (Asian soybean rust); type: in vivo; details: foliar, 200 ppm in the applied formulation, soybean leaf disks, preventative (inoculated one day after application), assessed 12 to 14 days after application, read-out: disease control compared to untreated control leaf disks
Protocol: as §1
Example 3: Fungicidal Activity Against Phakopsora pachyrhizi/Soybean/Leaf Disc Preventative (Asian Soybean Rust)
Soybean leaf disks are placed on water agar in multiwell plates (24-well format) and sprayed with the formulated test compound diluted in water. One day after application leaf discs are inoculated by spraying a spore suspension on the lower leaf surface. After an incubation period in a climate cabinet of 24-36 hours in darkness at 20° C. and 75% rh leaf disc are kept at 20° C. with 12 h light/day and 75% rh. The activity of a compound is assessed as percent disease control compared to untreated when an appropriate level of disease damage appears in untreated check leaf disks (12 to 14 days after application).
as §2

CCOC(=O)CC(C)NC(=O)c1ccc(-c2noc(C(F)(F)F)n2)cc1F (stereo not drawn) [Compound 3b.28, ethyl 3-[[2-fluoro-4-[5-(trifluoromethyl)-1,2,4-oxadiazol-3-yl]benzoyl]amino]butanoate]
≥ 80%: pest or weed control at 200 ppm [1] | pest or weed control at 200 ppm [2] | inhibition at 20 ppm [3]

CC(C)(O)CNC(=O)c1ccc(-c2noc(C(F)(F)F)n2)cc1 [Compound 3a.27, N-(2-hydroxy-2-methyl-propyl)-4-[5-(trifluoromethyl)-1,2,4-oxadiazol-3-yl]benzamide]
≥ 80%: pest or weed control at 200 ppm [1] | pest or weed control at 200 ppm (Phakopsora pachyrhizi) | pest or weed control at 200 ppm [2] | inhibition at 20 ppm [3]

CN(CCOC(F)F)C(=O)c1ccc(-c2noc(C(F)(F)F)n2)cc1 [Compound 3a.44, N-[2-(difluoromethoxy)ethyl]-N-methyl-4-[5-(trifluoromethyl)-1,2,4-oxadiazol-3-yl]benzamide]
≥ 80%: pest or weed control at 200 ppm [1] | pest or weed control at 200 ppm (Phakopsora pachyrhizi) | pest or weed control at 200 ppm [2] | inhibition at 20 ppm [3]

O=C(Nc1nc(Br)n[nH]1)c1ccc(-c2noc(C(F)(F)F)n2)cc1 [Compound 5a.6, N-(3-bromo-1H-1,2,4-triazol-5-yl)-4-[5-(trifluoromethyl)-1,2,4-oxadiazol-3-yl]benzamide]
≥ 80%: pest or weed control at 200 ppm [1] | pest or weed control at 200 ppm (Phakopsora pachyrhizi) | pest or weed control at 200 ppm [2] | inhibition at 20 ppm [3]

CCN(C(=O)c1ccc(-c2noc(C(F)(F)F)n2)cc1F)C(C)C [Compound 3b.35, N-ethyl-2-fluoro-N-isopropyl-4-[5-(trifluoromethyl)-1,2,4-oxadiazol-3-yl]benzamide]
≥ 80%: pest or weed control at 200 ppm [1] | pest or weed control at 200 ppm (Phakopsora pachyrhizi) | pest or weed control at 200 ppm [2] | inhibition at 20 ppm [3]

C=C(C)CN(CC)C(=O)c1ccc(-c2noc(C(F)(F)F)n2)cc1F [Compound 3b.33, N-ethyl-2-fluoro-N-(2-methylallyl)-4-[5-(trifluoromethyl)-1,2,4-oxadiazol-3-yl]benzamide]
≥ 80%: pest or weed control at 200 ppm [1] | pest or weed control at 200 ppm (Phakopsora pachyrhizi) | pest or weed control at 200 ppm [2] | inhibition at 20 ppm [3]

CN(C(=O)c1ccc(-c2noc(C(F)(F)F)n2)cc1)C(C)(C)C [Compound 3a.35, N-tert-butyl-N-methyl-4-[5-(trifluoromethyl) 1,2,4-oxadiazol-3-yl]benzamide]
≥ 80%: pest or weed control at 200 ppm [1] | pest or weed control at 200 ppm (Phakopsora pachyrhizi) | pest or weed control at 200 ppm [2] | inhibition at 20 ppm [3]

CC(C)OCCNC(=O)c1ccc(-c2noc(C(F)(F)F)n2)cc1 [Compound 3a.40, N-(2-isopropoxyethyl)-4-[5-(trifluoromethyl)-1,2,4-oxadiazol-3-yl]benzamide]
≥ 80%: pest or weed control at 200 ppm [1] | pest or weed control at 200 ppm (Phakopsora pachyrhizi) | pest or weed control at 200 ppm [2] | inhibition at 20 ppm [3]

CCCN(C)C(=O)c1ccc(-c2noc(C(F)(F)F)n2)cc1F [Compound 3b.34, 2-fluoro-N-methyl-N-propyl-4-[5-(trifluoromethyl)-1,2,4-oxadiazol-3-yl]benzamide]
≥ 80%: pest or weed control at 200 ppm [1] | pest or weed control at 200 ppm (Phakopsora pachyrhizi) | pest or weed control at 200 ppm [2] | inhibition at 20 ppm [3]

CCCCN(C)C(=O)c1ccc(-c2noc(C(F)(F)F)n2)cc1F [Compound 3b.38, N-butyl-2-fluoro-N-methyl-4-[5-(trifluoromethyl)-1,2,4-oxadiazol-3-yl]benzamide]
≥ 80%: pest or weed control at 200 ppm [1] | pest or weed control at 200 ppm (Phakopsora pachyrhizi) | pest or weed control at 200 ppm [2] | inhibition at 20 ppm [3]

CCOCCNC(=O)c1ccc(-c2noc(C(F)(F)F)n2)cc1F [Compound 3b.39, N-(2-ethoxyethyl)-2-fluoro-4-[5-(trifluoromethyl)-1,2,4-oxadiazol-3-yl]benzamide]
≥ 80%: pest or weed control at 200 ppm [1] | pest or weed control at 200 ppm (Phakopsora pachyrhizi) | pest or weed control at 200 ppm [2] | inhibition at 20 ppm [3]

COCCN(C)C(=O)c1ccc(-c2noc(C(F)(F)F)n2)cc1F [Compound 3b.19, 2-fluoro-N-(2-methoxyethyl)-N-methyl-4-[5-(trifluoromethyl)-1,2,4-oxadiazol-3-yl]benzamide]
≥ 80%: pest or weed control at 200 ppm [1] | pest or weed control at 200 ppm (Phakopsora pachyrhizi) | pest or weed control at 200 ppm [2] | inhibition at 20 ppm [3]

CCOC(C)CNC(=O)c1ccc(-c2noc(C(F)(F)F)n2)cc1F (stereo not drawn) [Compound 3b.12, N-(2-ethoxypropyl)-2-fluoro-4-[5-(trifluoromethyl)-1,2,4-oxadiazol-3-yl]benzamide]
≥ 80%: pest or weed control at 200 ppm [1] | pest or weed control at 200 ppm (Phakopsora pachyrhizi) | pest or weed control at 200 ppm [2] | inhibition at 20 ppm [3]

CCC(C)NC(=O)c1ccc(-c2noc(C(F)(F)F)n2)cc1F (stereo not drawn) [Compound 3b.10, 2-fluoro-N-sec-butyl-4-[5-(trifluoromethyl)-1,2,4-oxadiazol-3-yl]benzamide]
≥ 80%: pest or weed control at 200 ppm [1] | pest or weed control at 200 ppm (Phakopsora pachyrhizi) | pest or weed control at 200 ppm [2] | inhibition at 20 ppm [3]

CN(C(=O)c1ccc(-c2noc(C(F)(F)F)n2)cc1)c1ccccn1 [Compound 5a.4, N-methyl-N-(2-pyridyl)-4-[5-(trifluoromethyl)-1,2,4-oxadiazol-3-yl]benzamide]
≥ 80%: pest or weed control at 200 ppm [1] | pest or weed control at 200 ppm (Phakopsora pachyrhizi) | inhibition at 20 ppm [3]

O=C(NCCCO)c1ccc(-c2noc(C(F)(F)F)n2)cc1F [Compound 3b.23, 2-fluoro-N-(3-hydroxypropyl)-4-[5-(trifluoromethyl)-1,2,4-oxadiazol-3-yl]benzamide]
≥ 80%: pest or weed control at 200 ppm [1] | pest or weed control at 200 ppm (Phakopsora pachyrhizi) | inhibition at 20 ppm [3]

CCCCCCNC(=O)c1ccc(-c2noc(C(F)(F)F)n2)cc1F [Compound 3b.31, 2-fluoro-N-hexyl-4-[5-(trifluoromethyl)-1,2,4-oxadiazol-3-yl]benzamide]
≥ 80%: pest or weed control at 200 ppm [1] | pest or weed control at 200 ppm (Phakopsora pachyrhizi) | inhibition at 20 ppm [3]

CC(C)C(CO)NC(=O)c1ccc(-c2noc(C(F)(F)F)n2)cc1 (stereo not drawn) [Compound 3a.18, N-[1-(hydroxymethyl)-2-methyl-propyl]-4-[5-(trifluoromethyl)-1,2,4-oxadiazol-3-yl]benzamide]
≥ 80%: pest or weed control at 200 ppm [1] | pest or weed control at 200 ppm (Phakopsora pachyrhizi) | inhibition at 20 ppm [3]

CC(C)C(CO)NC(=O)c1ccc(-c2noc(C(F)(F)F)n2)cc1F (stereo not drawn) [Compound 3b.18, 2-fluoro-N-[1-(hydroxymethyl)-2-methyl-propyl]-4-[5-(trifluoromethyl)-1,2,4-oxadiazol-3-yl]benzamide]
≥ 80%: pest or weed control at 200 ppm [1] | inhibition at 20 ppm [3]
